Test results published in patent publication US20050222146A1, “N-substituted-n-sulfonylaminocyclopropane compounds and pharmaceutical use thereof” (priority 2003, published 2005).

Tests used:
MMP-1 = target: T1, MMP-1 (Homo sapiens, UniProt P03956); test: MMP-1 inhibitory action, Type I collagen Activity Measurement kit (FITC-labeled collagen type I); type: biochemical; details: 37° C. for 3 hr, read-out: Experimental Example 2 IC50 MMP1
T1 sequence (P03956 100-469): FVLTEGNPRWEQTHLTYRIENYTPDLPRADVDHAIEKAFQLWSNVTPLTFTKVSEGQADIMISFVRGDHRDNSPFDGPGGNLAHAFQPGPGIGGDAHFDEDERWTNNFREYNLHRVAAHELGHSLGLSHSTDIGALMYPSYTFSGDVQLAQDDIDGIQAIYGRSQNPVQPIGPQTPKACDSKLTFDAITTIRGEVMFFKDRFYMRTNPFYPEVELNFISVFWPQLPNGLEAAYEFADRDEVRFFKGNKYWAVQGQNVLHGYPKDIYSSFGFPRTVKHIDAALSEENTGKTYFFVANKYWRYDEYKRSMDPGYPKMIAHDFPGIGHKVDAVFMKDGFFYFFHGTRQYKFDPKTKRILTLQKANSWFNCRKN
Experimental: For MMP-1 Assay, Type I collagen Activity Measurement kit (YAGAI YU-72013) modified to a 96-well plate format was used.
The principle of the kit is based on the property of collagen that becomes soluble in ethanol after being cleaved by MMP-1.
(§1) The enzyme and substrate were diluted with Tris-HCl buffer, and test compounds were diluted with dimethyl sulfoxide (DMSO).
The enzyme and test compounds were added into 96-well plate, and fluorescein isothiocianate (FITC)-labeled collagen type I was added as a substrate and the mixture was incubated at 37° C. for 3 hr.
The reaction was terminated by addition of Tris-HCl buffer containing ethanol. After centrifugation, the supernatant containing denatured substrate was transferred to another 96-well plate. The collagenase activity of MMP-1 was determined by measuring FITC fluorescence intensity (excitation wavelength 485 nm, emission wavelength 530 nm) of each well. The inhibitory activity of the compound in each well (%) was calculated based on the values of enzyme-free well and inhibitor-free well. The inhibitory activity of the compound was represented as IC50 (μM).

aggrecanase-1 = target: T2, aggrecanase-1 (Homo sapiens, UniProt O75173); test: Aggrecanase-1 inhibitory action, Particle Assay (GAG release from aggrecan-containing polyacrylamide particles); type: biochemical; details: 37° C. for 15 hr, read-out: Experimental Example 1 IC50 AG1
T2 sequence (O75173 213-837): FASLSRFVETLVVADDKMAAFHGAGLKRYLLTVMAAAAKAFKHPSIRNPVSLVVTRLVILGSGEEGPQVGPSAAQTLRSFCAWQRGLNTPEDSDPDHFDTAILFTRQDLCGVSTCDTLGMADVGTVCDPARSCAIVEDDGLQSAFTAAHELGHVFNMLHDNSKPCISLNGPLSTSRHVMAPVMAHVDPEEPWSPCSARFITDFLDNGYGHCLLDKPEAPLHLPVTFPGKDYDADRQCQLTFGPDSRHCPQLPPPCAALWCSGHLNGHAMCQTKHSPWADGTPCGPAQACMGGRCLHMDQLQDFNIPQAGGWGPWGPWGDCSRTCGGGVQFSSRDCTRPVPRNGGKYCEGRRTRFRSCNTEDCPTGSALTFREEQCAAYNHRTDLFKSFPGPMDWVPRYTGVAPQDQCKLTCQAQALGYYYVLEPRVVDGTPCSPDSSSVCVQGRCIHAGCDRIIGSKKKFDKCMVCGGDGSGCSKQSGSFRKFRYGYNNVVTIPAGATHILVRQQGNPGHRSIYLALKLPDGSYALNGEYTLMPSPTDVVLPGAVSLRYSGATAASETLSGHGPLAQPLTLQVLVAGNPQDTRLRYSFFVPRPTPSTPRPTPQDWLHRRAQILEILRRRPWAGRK
Experimental: Aggrecanase-1 Inhibitory Action
Particle Assay was used for determination of aggrecanase activity.
as §1
Test compounds and the enzyme were added into 96-well plate, and polyacrylamide particles containing aggrecan were added as a substrate and the mixture was incubated at 37° C. for 15 hr.
After incubation; the supernatant was transferred to another plate, and mixed with 1,9-dimethylmethylene blue. The absorbance at 595 nm was measured to quantify the amount of glycosaminoglycan (GAG) released in the reaction supernatant. Whale chondroitin sulfate was used as the standard of GAG. The inhibitory activity of the compound in each well (%) was calculated based on the values of enzyme-free well and inhibitor-free well. The inhibitory activity of the compound was represented as IC50 (μM).

Row | SMILES | IC50 (MMP-1) | IC50 (aggrecanase-1)
1 | O=C(O)CN([C@]1(C(=O)O)C[C@H]1c1c(Cl)cccc1Cl)S(=O)(=O)c1ccc(-c2ccc(Cl)cc2)cc1 (relative stereo) [Example 1-29, (1R*,2S*)-1-[carboxymethyl-(4′-chloro-biphenyl-4-sulfonyl)-amino]-2-(2,6-dichloro-phenyl)-cyclopropanecarboxylic acid] | ≥ 10 µM | < 1 µM
2 | N#Cc1ccc([C@@H]2C[C@@]2(C(=O)O)N(CC(=O)O)S(=O)(=O)c2ccc(-c3ccc(Cl)cc3)cc2)cc1 (relative stereo) [Example 1-30, (1R*,2S*)-1-[carboxymethyl-(4′-chloro-biphenyl-4-sulfonyl)-amino]-2-(4-cyano-phenyl)-cyclopropanecarboxylic acid] | ≥ 10 µM | < 1 µM
3 | O=C(O)CN([C@]1(C(=O)O)C[C@H]1c1ccccc1Cc1ccccc1)S(=O)(=O)c1ccc(-c2ccc(Cl)cc2)cc1 (relative stereo) [Example 1-31, (1R*,2S*)-2-(2-benzyl-phenyl)-1-[carboxymethyl-(4′-chloro-biphenyl-4-sulfonyl)-amino]-cyclopropanecarboxylic acid] | ≥ 10 µM | < 0.1 µM
4 | O=C(O)CN([C@]1(C(=O)O)C[C@H]1c1ccc(-c2ccccc2)cc1)S(=O)(=O)c1ccc(-c2ccc(Cl)cc2)cc1 (relative stereo) [Example 1-32, (1R*,2S*)-2-biphenyl-4-yl-1-[carboxymethyl-(4′-chloro-biphenyl-4-sulfonyl)-amino]-cyclopropanecarboxylic acid] | ≥ 10 µM | < 1 µM
5 | O=C(O)CN([C@]1(C(=O)O)C[C@H]1c1ccccc1C(F)(F)F)S(=O)(=O)c1ccc(-c2ccc(Cl)cc2)cc1 (relative stereo) [Example 1-33, (1R*,2S*)-1-[carboxymethyl-(4′-chloro-biphenyl-4-sulfonyl)-amino]-2-(2-trifluoromethyl-phenyl)-cyclopropanecarboxylic acid] | ≥ 10 µM | < 1 µM
6 | O=C(O)CN([C@]1(C(=O)O)C[C@H]1c1cccc(C(F)(F)F)c1)S(=O)(=O)c1ccc(-c2ccc(Cl)cc2)cc1 (relative stereo) [Example 1-34, (1R*,2S*)-1-[carboxymethyl-(4′-chloro-biphenyl-4-sulfonyl)-amino]-2-(3-trifluoromethyl-phenyl)-cyclopropanecarboxylic acid] | ≥ 10 µM | < 0.1 µM
7 | O=C(O)CN([C@]1(C(=O)O)C[C@H]1c1cc(Cl)ccc1C(F)(F)F)S(=O)(=O)c1ccc(-c2ccc(Cl)cc2)cc1 (relative stereo) [Example 1-35, (1R*,2S*)-1-[carboxymethyl-(4′-chloro-biphenyl-4-sulfonyl)-amino]-2-(5-chloro-2-trifluoromethyl-phenyl)-cyclopropanecarboxylic acid] | ≥ 10 µM | < 1 µM
8 | CC(C)(CN([C@]1(C(=O)O)C[C@H]1c1ccccc1)S(=O)(=O)c1ccc(-c2ccc(Cl)cc2)cc1)C(=O)O (relative stereo) [Example 1-37, (1R*,2S*)-1-[(2-carboxy-2-methyl-propyl)-(4′-chloro-biphenyl-4-sulfonyl)-amino]-2-phenyl-cyclopropanecarboxylic acid] | ≥ 10 µM | < 1 µM
9 | CS(=O)(=O)NC(=O)CN([C@]1(C(=O)O)C[C@H]1c1ccccc1)S(=O)(=O)c1ccc(-c2ccc(Cl)cc2)cc1 (relative stereo) [Example 1-38, (1R*,2S*)-1-[(4′-chloro-biphenyl-4-sulfonyl)-(2-methanesulfonylamino-2-oxo-ethyl)-amino]-2-phenyl-cyclopropanecarboxylic acid] | ≥ 10 µM | < 1 µM
10 | O=C(O)CN([C@]1(C(=O)O)C[C@H]1c1cccc(OCc2ccccc2)c1)S(=O)(=O)c1ccc(-c2ccc(Cl)cc2)cc1 (relative stereo) [Example 1-39, (1R*,2S*)-2-(3-benzyloxy-phenyl)-1-[carboxymethyl-(4′-chloro-biphenyl-4-sulfonyl)-amino]-cyclopropanecarboxylic acid] | ≥ 10 µM | < 0.1 µM
11 | O=C(O)CN([C@]1(C(=O)O)C[C@H]1c1ccccc1OCc1ccccc1)S(=O)(=O)c1ccc(-c2ccc(Cl)cc2)cc1 (relative stereo) [Example 1-40, (1R*,2S*)-2-(2-benzyloxy-phenyl)-1-[carboxymethyl-(4′-chloro-biphenyl-4-sulfonyl)-amino]-cyclopropanecarboxylic acid] | ≥ 10 µM | < 0.1 µM
12 | O=C(O)CN([C@]1(C(=O)O)C[C@H]1c1cccc(Cl)c1Cl)S(=O)(=O)c1ccc(-c2ccc(Cl)cc2)cc1 (relative stereo) [Example 1-41, (1R*,2S*)-1-[carboxymethyl-(4′-chloro-biphenyl-4-sulfonyl)-amino]-2-(2,3-dichloro-phenyl)-cyclopropanecarboxylic acid] | ≥ 10 µM | < 0.1 µM
13 | O=C(O)CN([C@]1(C(=O)O)C[C@H]1c1ccccc1Oc1ccccc1)S(=O)(=O)c1ccc(-c2ccc(Cl)cc2)cc1 (relative stereo) [Example 1-42, (1R*,2S*)-1-[carboxymethyl-(4′-chloro-biphenyl-4-sulfonyl)-amino]-2-(2-phenoxy-phenyl)-cyclopropanecarboxylic acid] | ≥ 10 µM | < 0.1 µM
14 | O=C(CN([C@]1(C(=O)O)C[C@H]1c1ccccc1)S(=O)(=O)c1ccc(-c2ccc(Cl)cc2)cc1)N1CC(O)C(O)C1 (relative stereo) [Example 1-43, (1R*,2S*)-1-{(4′-chloro-biphenyl-4-sulfonyl)-[2-(3,4-dihydroxy-pyrrolidin-1-yl)-2-oxo-ethyl]-amino}-2-phenyl-cyclopropanecarboxylic acid] | ≥ 10 µM | < 1 µM
15 | O=C(O)CN([C@]1(C(=O)O)C[C@H]1c1cccc(Cc2ccccc2)c1)S(=O)(=O)c1ccc(-c2ccc(Cl)cc2)cc1 (relative stereo) [Example 1-44, (1R*, 2S*)-2-(3-benzyl-phenyl)-1-[carboxymethyl-(4′-chloro-biphenyl-4-sulfonyl)-amino]-cyclopropanecarboxylic acid] | ≥ 10 µM | < 0.1 µM
16 | O=C(CN([C@]1(C(=O)O)C[C@H]1c1ccccc1)S(=O)(=O)c1ccc(-c2ccc(Cl)cc2)cc1)N1CCCC1 (relative stereo) [Example 1-45, (1R*,2S*)-1-[(4′-chloro-biphenyl-4-sulfonyl)-(2-oxo-2-pyrrolidin-1-yl-ethyl)-amino]-2-phenyl-cyclopropanecarboxylic acid] | ≥ 10 µM | < 1 µM
17 | COC(=O)CN([C@]1(C(=O)O)C[C@H]1c1ccccc1)S(=O)(=O)c1ccc(-c2ccc(Cl)cc2)cc1 (relative stereo) [Example 1-46, (1R*,2S*)-1-[(4′-chloro-biphenyl-4-sulfonyl)-methoxycarbonylmethyl-amino]-2-phenyl-cyclopropanecarboxylic acid] | ≥ 10 µM | < 1 µM
18 | CC(C)COc1cccc([C@@H]2C[C@@]2(C(=O)O)N(CC(=O)O)S(=O)(=O)c2ccc(-c3ccc(Cl)cc3)cc2)c1 (relative stereo) [Example 1-47, (1R*,2S*)-1-[carboxymethyl-(4′-chloro-biphenyl-4-sulfonyl)-amino]-2-(3-isobutoxy-phenyl)-cyclopropanecarboxylic acid] | ≥ 10 µM | < 0.1 µM
